Assay results published in PubChem BioAssay (NCI).
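Following 48 hours of exposure in 96-well plates, responses at five concentrations were used to interpolate endpoints linearly. The concentration for 50% growth inhibition is given as GI50. Definition used: TGI = concentration required for complete inhibition of growth.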

Key:
Experiment in all cases: NCI-60 cell line screen, 48 h
786-0 renal = system: 786-0 renal
CCRF-CEM leukemia = system: CCRF-CEM leukemia
SK-MEL-5 melanoma = system: SK-MEL-5 melanoma
OVCAR-8 ovarian = system: OVCAR-8 ovarian
TK-10 renal = system: TK-10 renal
OVCAR-3 ovarian = system: OVCAR-3 ovarian
M14 melanoma = system: M14 melanoma
U251 CNS = system: U251 CNS
NCI-H460 lung = system: NCI-H460 lung
KM20L2 colon = system: KM20L2 colon
LOX IMVI melanoma = system: LOX IMVI melanoma
HCC-2998 colon = system: HCC-2998 colon
OVCAR-5 ovarian = system: OVCAR-5 ovarian
SK-OV-3 ovarian = system: SK-OV-3 ovarian
SNB-19 CNS = system: SNB-19 CNS
NCI-H522 lung = system: NCI-H522 lung
UO-31 renal = system: UO-31 renal
HCT-116 colon = system: HCT-116 colon
DMS 273 small cell lung = system: DMS 273 small cell lung
KM12 colon = system: KM12 colon
COLO 205 colon = system: COLO 205 colon
OVCAR-4 ovarian = system: OVCAR-4 ovarian
MALME-3M melanoma = system: MALME-3M melanoma
HCT-15 colon = system: HCT-15 colon
SW-620 colon = system: SW-620 colon
HL-60(TB) leukemia = system: HL-60(TB) leukemia
SF-268 CNS = system: SF-268 CNS
DLD-1 colon = system: DLD-1 colon
SN12C renal = system: SN12C renal
RPMI-8226 leukemia = system: RPMI-8226 leukemia
K-562 leukemia = system: K-562 leukemia
HOP-92 NSCLC = system: HOP-92 NSCLC
XF 498 CNS = system: XF 498 CNS
UACC-257 melanoma = system: UACC-257 melanoma
A549 NSCLC = system: A549 NSCLC
MOLT-4 leukemia = system: MOLT-4 leukemia
EKVX NSCLC = system: EKVX NSCLC
SK-MEL-28 melanoma = system: SK-MEL-28 melanoma
SNB-78 CNS = system: SNB-78 CNS
ACHN renal = system: ACHN renal
RXF 393 renal = system: RXF 393 renal
SK-MEL-2 melanoma = system: SK-MEL-2 melanoma
LXFL 529 NSCLC = system: LXFL 529 NSCLC
SNB-75 CNS = system: SNB-75 CNS
UACC-62 melanoma = system: UACC-62 melanoma
NCI-H23 lung = system: NCI-H23 lung
DMS 114 small cell lung = system: DMS 114 small cell lung
IGROV1 ovarian = system: IGROV1 ovarian
SF-539 CNS = system: SF-539 CNS
NCI-H226 lung = system: NCI-H226 lung
M19-MEL melanoma = system: M19-MEL melanoma
HOP-62 NSCLC = system: HOP-62 NSCLC
SF-295 CNS = system: SF-295 CNS
HT29 colon = system: HT29 colon
A498 renal = system: A498 renal
CAKI-1 renal = system: CAKI-1 renal

`O=c1[nH]c2cc([N+](=O)[O-])ccc2nc1/C(=N/Nc1ccccc1)C(O)c1ccccc1Cl` (configuration not stated) was tested, and the TGI (786-0 renal) was greater than 100 µM, the TGI (CCRF-CEM leukemia) was greater than 100 µM and the TGI (SK-MEL-5 melanoma) was greater than 100 µM. For the same molecule, the TGI (OVCAR-8 ovarian) was greater than 100 µM, the TGI (TK-10 renal) was greater than 100 µM and the TGI (OVCAR-3 ovarian) was greater than 100 µM. It also gave a TGI (M14 melanoma) greater than 100 µM, a TGI (U251 CNS) greater than 100 µM and a TGI (NCI-H460 lung) greater than 100 µM. For the same molecule, the TGI (KM20L2 colon) was greater than 100 µM, the TGI (LOX IMVI melanoma) was greater than 100 µM and the TGI (HCC-2998 colon) was 64.5 µM. It also gave a TGI (OVCAR-5 ovarian) greater than 100 µM, a TGI (SK-OV-3 ovarian) greater than 100 µM and a TGI (SNB-19 CNS) greater than 100 µM. It also gave a TGI (NCI-H522 lung) greater than 100 µM, a TGI (UO-31 renal) greater than 100 µM and a TGI (HCT-116 colon) greater than 100 µM. It also gave a TGI (DMS 273 small cell lung) greater than 100 µM, a TGI (KM12 colon) greater than 100 µM and a TGI (COLO 205 colon) greater than 100 µM. For the same molecule, the TGI (OVCAR-4 ovarian) was greater than 100 µM, the TGI (MALME-3M melanoma) was greater than 100 µM and the TGI (HCT-15 colon) was 36.3 µM. For the same molecule, the TGI (SW-620 colon) was greater than 100 µM, the TGI (HL-60(TB) leukemia) was greater than 100 µM and the TGI (SF-268 CNS) was greater than 100 µM. The TGI (DLD-1 colon) was greater than 100 µM, the TGI (SN12C renal) was greater than 100 µM and the TGI (RPMI-8226 leukemia) was greater than 100 µM. For the same molecule, the TGI (K-562 leukemia) was greater than 100 µM, the TGI (HOP-92 NSCLC) was greater than 100 µM and the TGI (XF 498 CNS) was greater than 100 µM. It also gave a TGI (UACC-257 melanoma) greater than 100 µM, a TGI (A549 NSCLC) greater than 100 µM and a TGI (MOLT-4 leukemia) greater than 100 µM. The TGI (EKVX NSCLC) was greater than 100 µM, the TGI (SK-MEL-28 melanoma) was greater than 100 µM and the TGI (SNB-78 CNS) was greater than 100 µM. The TGI (ACHN renal) was greater than 100 µM, the TGI (RXF 393 renal) was greater than 100 µM and the TGI (SK-MEL-2 melanoma) was greater than 100 µM. For the same molecule, the TGI (LXFL 529 NSCLC) was greater than 100 µM, the TGI (SNB-75 CNS) was greater than 100 µM and the TGI (UACC-62 melanoma) was greater than 100 µM. It also gave a TGI (NCI-H23 lung) greater than 100 µM, a TGI (DMS 114 small cell lung) greater than 100 µM and a TGI (IGROV1 ovarian) greater than 100 µM. It also gave a TGI (SF-539 CNS) greater than 100 µM, a TGI (NCI-H226 lung) greater than 100 µM and a TGI (M19-MEL melanoma) greater than 100 µM. It also gave a TGI (HOP-62 NSCLC) greater than 100 µM, a TGI (SF-295 CNS) greater than 100 µM and a TGI (HT29 colon) greater than 100 µM.
`O=C([CH-]C(=O)c1ccccc1)c1ccccc1.O=C([CH-]C(=O)c1ccccc1)c1ccccc1.[La+3].[OH-].[OH3+]` showed a GI50 (786-0 renal) of 16 µM, a TGI (786-0 renal) of 65.1 µM and a GI50 (A498 renal) of 17.9 µM. For the same molecule, the TGI (A498 renal) was 87.7 µM, the GI50 (SK-MEL-5 melanoma) was 10.3 µM and the TGI (SK-MEL-5 melanoma) was 23.9 µM. The GI50 (OVCAR-8 ovarian) was 6.67 µM, the TGI (OVCAR-8 ovarian) was 65.4 µM and the GI50 (TK-10 renal) was 32.1 µM. The TGI (TK-10 renal) was greater than 100 µM, the GI50 (M14 melanoma) was 16.8 µM and the TGI (M14 melanoma) was 37.6 µM. For the same molecule, the GI50 (U251 CNS) was 15.2 µM, the TGI (U251 CNS) was greater than 100 µM and the GI50 (NCI-H460 lung) was 8.66 µM. It also gave a TGI (NCI-H460 lung) greater than 100 µM, a GI50 (KM20L2 colon) of 22.4 µM and a TGI (KM20L2 colon) of 68.7 µM. It also gave a GI50 (LOX IMVI melanoma) of 13.5 µM, a TGI (LOX IMVI melanoma) of 37.1 µM and a GI50 (HCC-2998 colon) of 16.1 µM. The TGI (HCC-2998 colon) was 48.1 µM, the GI50 (OVCAR-5 ovarian) was 65.8 µM and the TGI (OVCAR-5 ovarian) was greater than 100 µM. For the same molecule, the GI50 (SK-OV-3 ovarian) was 21.3 µM, the TGI (SK-OV-3 ovarian) was 69.8 µM and the GI50 (SNB-19 CNS) was 19.2 µM. It also gave a TGI (SNB-19 CNS) of 66.3 µM, a GI50 (NCI-H522 lung) of 3.29 µM and a TGI (NCI-H522 lung) of 19.8 µM. It also gave a GI50 (UO-31 renal) of 6.62 µM, a TGI (UO-31 renal) of 31.6 µM and a GI50 (HCT-116 colon) of 7.89 µM. It also gave a TGI (HCT-116 colon) of 29.6 µM, a GI50 (COLO 205 colon) of 22.6 µM and a TGI (COLO 205 colon) of 61.5 µM. It also gave a GI50 (OVCAR-4 ovarian) of 26.1 µM, a TGI (OVCAR-4 ovarian) greater than 100 µM and a GI50 (MALME-3M melanoma) of 23 µM. It also gave a TGI (MALME-3M melanoma) of 69.5 µM, a GI50 (HCT-15 colon) of 13 µM and a TGI (HCT-15 colon) of 48.1 µM. It also gave a GI50 (SW-620 colon) of 9.82 µM, a TGI (SW-620 colon) greater than 100 µM and a GI50 (HL-60(TB) leukemia) of 3.87 µM. For the same molecule, the TGI (HL-60(TB) leukemia) was 22.7 µM, the GI50 (SF-268 CNS) was 13.3 µM and the TGI (SF-268 CNS) was 59.5 µM. It also gave a GI50 (SN12C renal) of 18.4 µM, a TGI (SN12C renal) of 68 µM and a GI50 (RPMI-8226 leukemia) of 11.1 µM. For the same molecule, the TGI (RPMI-8226 leukemia) was 49.9 µM, the GI50 (K-562 leukemia) was 5.24 µM and the TGI (K-562 leukemia) was greater than 100 µM. The GI50 (HOP-92 NSCLC) was 15.3 µM, the TGI (HOP-92 NSCLC) was 38.9 µM and the GI50 (UACC-257 melanoma) was 16.3 µM. It also gave a TGI (UACC-257 melanoma) of 46.5 µM, a GI50 (A549 NSCLC) of 20.6 µM and a TGI (A549 NSCLC) of 55.2 µM. For the same molecule, the GI50 (MOLT-4 leukemia) was 6.24 µM, the TGI (MOLT-4 leukemia) was 38.6 µM and the GI50 (EKVX NSCLC) was 14.3 µM. For the same molecule, the TGI (EKVX NSCLC) was 51.9 µM, the GI50 (SK-MEL-28 melanoma) was 17.1 µM and the TGI (SK-MEL-28 melanoma) was 57.2 µM. It also gave a GI50 (ACHN renal) of 19.6 µM, a TGI (ACHN renal) greater than 100 µM and a GI50 (RXF 393 renal) of 2.99 µM. For the same molecule, the TGI (RXF 393 renal) was 29.6 µM, the GI50 (CAKI-1 renal) was 17.4 µM and the TGI (CAKI-1 renal) was 56.8 µM. It also gave a GI50 (SK-MEL-2 melanoma) of 15.1 µM, a TGI (SK-MEL-2 melanoma) of 37.8 µM and a GI50 (SNB-75 CNS) of 5.02 µM. The TGI (SNB-75 CNS) was 21.6 µM, the GI50 (UACC-62 melanoma) was 14 µM and the TGI (UACC-62 melanoma) was 44.7 µM. The GI50 (NCI-H23 lung) was 12.2 µM, the TGI (NCI-H23 lung) was 48.6 µM and the GI50 (IGROV1 ovarian) was 25.8 µM. It also gave a TGI (IGROV1 ovarian) greater than 100 µM, a GI50 (NCI-H226 lung) of 1.67 µM and a TGI (NCI-H226 lung) of 17.7 µM. It also gave a GI50 (HOP-62 NSCLC) of 10.9 µM, a TGI (HOP-62 NSCLC) of 41.9 µM and a GI50 (HT29 colon) of 19.4 µM. For the same molecule, the TGI (HT29 colon) was 50.1 µM.
